Literature values as cited in article PMC8075256, “Transport of Alzheimer’s associated amyloid-β catalyzed by P-glycoprotein” (PLOS ONE, 2021).

Test system: P-gp and BCRP
Details: ref 65 Kannan et al.
Source text: To further test if P-gp can transport Aβ42, we performed fluorescence accumulation assays in a human cellular system. […] Previous work by our group has shown that the chemotherapy-sensitive, non-P-gp-overexpressing DU145 cells do express detecta ...

With `COc1cc2c(cc1OC)CN(CCc1ccc(NC(=O)c3cc(OC)c(OC)cc3NC(=O)c3cnc4ccccc4c3)cc1)CC2` [Tariquidar] as the compound, how does the “concentrations at which TQR acts as an inhibitor of both P-gp and BCRP” value read?
The value was “greater than 100 nM”.
